Laboratory results taken from patent US20100311678A1, “METHODS AND COMPOSITIONS FOR TREATING CANCER AND MODULATING SIGNAL TRANSDUCTION AND METABOLISM PATHWAYS” (priority 2007, published 2010).
Entries after “also recorded” stand apart in the source; their conditions may differ.

Experiments:
[1] = system: adult rat dissociated dorsal root ganglion (DRG) neurons; assay: Intracellular delivery of fluorescent doxorubicin into dissociated DRG neurons with the TRPV1 agonist capsaicin (micrographs); type: cell-based; conditions: 2 mM doxorubicin/1 mM capsaicin for 5 minutes vs 2 mM doxorubicin alone for 20 minutes; fluorescence micrographs, FIG. 2
Method: FIG. 2 is a series of micrographs showing intracellular delivery of doxorubicin into adult rat dissociated dorsal root ganglion (DRG) neurons. The DRG neurons were treated with vehicle control (FIG. 2A), 2 mM doxorubicin (Adriamycin®) for 20 minutes (FIG. 2B), or 2 mM doxorubicin (Adriamycin®)/1 mM capsaicin for 5 minutes (FIG. 2C). […] The size and number of the fluorescently labeled neurons are similar to those of TRPV1 expressing neurons.
The selective administration of compounds or agents that are cytotoxic to cancer cells is accomplished by the co-administration of capsaicin, an agonist of the large-pore cation channel receptor TRPV1, along with doxorubicin (Adriamycin®).

[2] = system: adult rat dissociated dorsal root ganglion (DRG) neurons; assay: Intracellular delivery of fluorescent doxorubicin into dissociated DRG neurons with the TRPM8 agonist menthol (micrographs); type: cell-based; conditions: 2 mM doxorubicin/100 mM L-menthol for 10 minutes vs 2 mM doxorubicin alone for 20 minutes; fluorescence micrographs, FIG. 1
Method: FIG. 1 is a series of micrographs showing intracellular delivery of doxorubicin a fluorescent antiproliferative agent into adult rat dissociated dorsal root ganglion (DRG) neurons. The DRG neurons were treated with vehicle control (FIG. 1A), 2 mM doxorubicin (Adriamycin®) for 20 minutes (FIG. 1B), or 2 mM doxorubicin/100 mM L-menthol for 10 minutes (FIG. 1C). […] The size and number of the fluorescently labeled neurons are similar to those of TRPM8 expressing neurons.
The selective administration of compounds or agents that are cytotoxic to cancer cells is accomplished by the co-administration of menthol, an agonist of the large-pore cation channel receptor TRPM8, along with the antiproliferative agent doxorubicin (Adriamycin®). […] Once doxorubicin is within a cell it enters the nucleus where it binds to DNA.

COc1cccc2c1C(=O)c1c(O)c3c(c(O)c1C2=O)C[C@@](O)(C(=O)CO)C[C@@H]3O[C@H]1C[C@H](N)[C@H](O)[C@H](C)O1 [doxorubicin]
intracellular delivery/accumulation of doxorubicin [1]: only entered into cells in the presence of capsaicin; also recorded: intracellular accumulation of the doxorubicin only into those DRG neurons that express TRPV1
intracellular delivery/accumulation of doxorubicin [2]: only entered into cells in the presence of menthol; also recorded: intracellular accumulation of the doxorubicin only into those DRG neurons that express TRPM8
